Assay results taken from publication PMC4459685, “Design and characterization of a new peptide vector for short interfering RNA delivery” (Journal of Nanobiotechnology, 2015).

What was measured:
[1] = system: siRNA; conditions: cited from earlier work
Source text: Here, an amphipathic, cationic peptide GL1 was designed and investigated. Structurally, GL1 has dispersed cationic amino acids along the sequence, which differs from the arginine rich peptide R9, R9-hLF, and Tat. The peptide MPG and MPG-like peptides consist of a hydrophobic domain and a hydrophilic domain which contributes to their amphipathic property; while PF6 and PF14 incorporated a stearyl moiety in their sequences to improve amphiphilicity. However, peptide GL1 has hydrophilic and hydrophobic amino acids dispersed along the sequence, which leads to its amphipathicity ...

[2] = system: siRNA; assay: Isothermal titration calorimetry, titrating siRNA with GL1; assay type: binding
Experimental: The isothermal titration calorimetry experiments were conducted using a Nano-ITC calorimeter (TA Instruments). A 500 μM GL1 peptide solution and a 10 μM siRNA solution were both prepared in RNase-free water. All of the samples were degassed in a degassing station (TA Instruments) prior to the experiments. RNase-free water was placed in the ITC reference cell. For each titration, 2 μl of the peptide in a pipette rotating at 250 rpm was injected into the siRNA solution in the sample cell of the calorimeter, which was equilibrated to 25°C, with an interval of 300 s between injections. The heat of dilution was measured by titrating the GL1 solution into RNase-free water and was later subtracted from the sample measurement. The data were analyzed using NanoAnalyze software v.3.1.2.
The ability of GL1 to interact with siRNA was investigated by gel electrophoresis. Binding between peptide and siRNA prevented RNA from being stained by EtBr. […] At a slightly higher molar ratio 15/1, no free siNRA was detected on the agarose gel. […] This direct binding between cationic peptide and anionic siRNA would be initiated via electrostatic interactions. The formation of GL1-siRNA complexes and the thermodynamic parameters associated with the binding between peptide and siRNA was further investigated using isothermal titration calorimetry by titrating the siRNA with GL1. The heat exchange during the titration of siRNA by GL1 (in RNase-free water) was detected by the machine and output as raw data. By fitting the raw data (upper panel of Figure 2) to a single-site model (lower panel of Figure 2), the thermodynamic parameters during the interaction were obtained and listed in Table 1.
Figure 2 Calorimetric titration of siRNA with GL1 at 25°C in RNasefree water at pH 6. a Corrected thermogram of calorimetric titration of siRNA with GL1. b Binding analysis of siRNA with GL1 by fitting the raw data with an independent model. GL1 concentration was 500 μM and siRNA concentration was 10 μM.

[3] = system: eGFP siRNA; assay: Agarose gel-shift assay of peptide-siRNA complex formation; assay type: binding; conditions: 1.2% agarose gel, 300 ng eGFP siRNA
Experimental: The GL1-siRNA complexes in RNase-free water were made with 300 ng of eGFP siRNA. The samples of siRNA alone and GL1-siRNA complexes at molar ratios (peptide/siRNA) ranging from 1/1 to 80/1 were electrophoresed on a 1.2% wt/vol agarose gel in 1× TBE at 55 V for 1 h. The ethidium bromide-stained siRNA was visualized on an ultraviolet transilluminator with a camera.
Figure 1 Binding ability of siRNA to GL1 studied by agarose gel-shift assay The formed GL1-siRNA complexes, stained with ethidium bromide, were investigated by electrophoresis on agarose gel (1.2% wt/vol). siRNAs, targeting eGFP genes, were complexed with GL1 at a series of molar ratios from 1/1 to 80/1. Lane 1 was siRNA control, and lanes 2–8 indicated correlated molar ratios. The amount of siRNA was 300 ng.

[4] = system: CHO-K1 cells; assay: FACS cellular uptake of Cy3-labeled GAPDH siRNA; assay type: cell-based, Chinese hamster; conditions: Cy3-labeled GAPDH siRNA 100 nM, 4 h
Experimental: The uptake of Cy3-labeled siRNA into the CHO-K1 cells was quantified with a BD FACSVantage SE Cell Sorter flow cytometry (BD Biosciences, United States). CHO-K1 cells were plated at a density of 50,000 cells per well and incubated for 24 h in a 24-well flat-bottom plate. The medium was replaced with GL1-siRNA complexes and control samples in OPTI-MEM (Invitrogen) or F12-K supplemented with 10% FBS with a siRNA concentration of 100 nM. After 4 h of incubation, the cells were rinsed with phosphate buffered saline (PBS) and washed with heparin (10 U/ml). After, trypsin–EDTA was added to detach the cells from the plate. The cells were re-suspended in 4% paraformaldehyde (PFA) and ready for quantitative analysis.
Figure 5 a Fluorescence microscope image of GL1-siRNA complexes at molar ratio 40/1 (magnification 40×). The red fluorescence indicated Cy3 labeled siRNA, blue fluorescence represented DAPI stained nuclei. […] Non-treated sample was negative control; Lipo-siRNA complexes were positive control. Cy3 labeled GAPDH siRNA was used here. siRNA concentration was 100 nM in both experiments. NT non-treated, MR peptide/siRNA molar ratio, Lipo Lipofectamine 2000. Results are expressed as mean ± standard deviation (n = 3).

[5] = system: CHO-K1 cells; assay: MTT cytotoxicity assay; assay type: cell-based, Chinese hamster; conditions: siRNA 50 nM, 4 h Opti-MEM then 48 h, molar ratio 10/1
Experimental: The cytotoxicity of peptide-siRNA complexes was determined by the MTT assay. In brief, cells were seeded at 5,000 cells/well in clear, flat-bottomed, 96-well plates (Costar) 24 h before treatment. After being washed, 100 μl of Opti-MEM that contained peptide-siRNA complexes at different molar ratios was added to the wells and incubated for 4 h. Thereafter, 50 μl of 30% serum containing medium was added, and the cytotoxicity of the relevant reagents was determined by the MTT assay after 48 h. The absorbance at 570 nm was read on a plate reader (FLUOstar OPTIMA, BMG, Germany). The background absorbance of the multiwell plates at 690 nm was determined and subtracted from the 570 nm measurement. The results obtained from triplicate wells were averaged and normalized to the value obtained from the non-treated cells.
Figure 7 Cell viability results of CHO-K1 cells treated with naked Lipofectamine 2000 or GL1, and the complexes with siRNA (50 nM) at different molar ratios. NT non-treated, MR peptide/siRNA molar ratio, Lipo Lipofectamine 2000. Results are expressed as mean ± standard deviation (n = 3). *P value < 0.05, the cell viability after GL1 treatment is statistically significant than that after Lipo treatment.

[6] = target: T1, GL1 peptide (synthetic (designed)); assay: EMSA (agarose gel shift, EtBr); peptide/siRNA molar ratios 1/1 to 80/1; no free siRNA at 15/1, strongly reduced at 10/1; 300 ng siRNA; ITC: RNase-free water, pH 6, 25 C, 500 uM GL1 into 10 uM siRNA; gel shift: 1.2% agarose, EtBr, 20 min incubation, buffer not given; conditions: tags: N-terminal acetyl, C-terminal amide
T1 chain: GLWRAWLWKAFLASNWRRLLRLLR

[7] = ITC, 500 μM GL1 titrated into 10 μM siRNA, RNase-free water pH 6, 25°C

TP10
molar ratio required to encapsulate all the free siRNA [1]: 50/1

Ac-GLWRAWLWKAFLASNWRRLLRLLR-NH2 [GL1]
n (molar stoichiometry, mol GL1 per mol siRNA) [2, 7]: 7.16 | ΔH (enthalpy) [2, 7]: -4.472 kcal/mol | ΔS [2, 7]: 64.56 J/(mol K) | Kd ([2]; ITC, 500 μM GL1 titrated into 10 μM siRNA, RNase-free water pH 6, 25°C, read-out: Kd (dissociation constant)): 224 nM | ΔG ([2]; calculated with ΔG = ΔH − TΔS, ITC at 25°C): -9.068 kcal/mol | minimal peptide/siRNA molar ratio for siRNA delivery / complex formation [3]: around 10/1 | peptide/siRNA molar ratio at which no free siRNA is detected (all free siRNA encapsulated) ([3]; ethidium bromide, molar ratios 1/1 to 80/1): 15/1 | cellular uptake of siRNA ([4]; F12-K with 10% FBS, molar ratio 20/1, mean n = 3): 75% | cellular uptake of siRNA ([4]; F12-K with 10% FBS, molar ratio 40/1, mean n = 3): 84% | cellular uptake of siRNA ([4]; OPTI-MEM without serum, molar ratio 20/1, mean n = 3): 95% | cellular uptake of siRNA ([4]; OPTI-MEM without serum, molar ratio 40/1, mean n = 3): 95% | cellular uptake of siRNA ([4]; in the presence of serum, molar ratio not stated at the place, mean n = 3): ~ 84% | cellular uptake of siRNA ([4]; serum free, molar ratio not stated at the place, mean n = 3): ~ 95% | toxicity [5]: did not cause toxicity

B1: eGFP siRNA (dsRNA)
RNA 1: GACGUAAACGGCCACAAGUUC
RNA 2: ACUUGUGGCCGUUUACGUCGC
binding result [6]: binds
